The values below come from patent publication US20020183518A1, “Modulators of proteins with phosphotyrosine recognition units” (ONTOGEN CORPORATION, priority 1995, published 2002).

The target in one assay is T1, PTP-1B (Homo sapiens, UniProt P18031).
T1 construct: known to encode a 321 amino acid fragment containing the PTP-1B catalytic domain and having PTPase activity; made in house; host or cells: E. coli DH5α, plasmid pGEX-3X-PTP-1B
T1 sequence (P18031 3-277 limits assumed): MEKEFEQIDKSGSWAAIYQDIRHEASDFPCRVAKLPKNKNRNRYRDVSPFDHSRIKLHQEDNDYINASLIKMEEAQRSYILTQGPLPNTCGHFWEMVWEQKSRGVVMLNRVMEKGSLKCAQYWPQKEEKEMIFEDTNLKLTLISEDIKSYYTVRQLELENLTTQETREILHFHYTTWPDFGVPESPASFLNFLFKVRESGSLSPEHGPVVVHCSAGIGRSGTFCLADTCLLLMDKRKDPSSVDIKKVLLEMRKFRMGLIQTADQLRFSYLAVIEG
Description: In vitro PTPase inhibition assay (pNPP, colorimetric), PTP-1B. It counts as biochemical. To be noted: Table 9; read-out: IC50 values against PTP1B. How it is done:
PTP-1B enzymatic activity of samples was assayed in microtiter plates as follows. The protein concentration of the PTP-1B enzyme preparation was determined using the Bio-Rad Protein Assay kit (Bio-Rad, Hercules Calif.). […] Reactions were mixed gently and incubated at 37° C. for 60 minutes. Enzymatic cleavage of phosphate from pNPP (a tyrosine phosphate analog) is marked by a colorimetric change in this substrate. See, e.g., Imbert et al., Biochem J., 297:163-173 (1994); Ghosh and Miller, Biochem. Biophys. Res. […] Zanke et al., Eur. J. […] To determine the enzymatic activity, absorbance readings of the reactions were measured at 405 nm using a Molecular Devices Thermomax Plate Reader (Menlo Park Calif.). […] Purified phosphatase was added to the reaction mixtures to begin the reactions; the reactions were incubated at 37° C. for 60 min. […] (for PTP-1C and PTPα assays), stopped, and colorimetrically analyzed as described above. […] First, absorbance readings from the negative control reactions were treated as a baseline and subtracted from the absorbance readings of the experimental reactions. Then, for each reaction, a percent inhibition was calculated using the following formula: […] For each inhibitor compound tested, an IC50 concentration was calculated from a best-fit computer analysis of the calculated percent inhibition for the various dilutions of the compound. PTP-1B enzymatic activity of samples was assayed in microtiter plates as follows. The protein concentration of the PTP-1B enzyme preparation was determined using the Bio-Rad Protein Assay kit (Bio-Rad, Hercules Calif.). […] Reactions were mixed gently and incubated at 37° C. for 60 minutes. Enzymatic cleavage of phosphate from pNPP (a tyrosine phosphate analog) is marked by a colorimetric change in this substrate. See, e.g., Imbert et al., Biochem J., 297:163-173 (1994); Ghosh and Miller, Biochem. Biophys. Res. […] Zanke et al., Eur. […] To determine the enzymatic activity, absorbance readings of the reactions were measured at 405 nm using a Molecular Devices Thermomax Plate Reader (Menlo Park Calif.). […] Purified phosphatase was added to the reaction mixtures to begin the reactions; the reactions were incubated at 37° C. for 60 min. […] (for PTP-1C and PTPα assays), stopped, and calorimetrically analyzed as described above. […] First, absorbance readings from the negative control reactions were treated as a baseline and subtracted from the absorbance readings of the experimental reactions. Then, for each reaction, a percent inhibition was calculated using the following formula: […] For each inhibitor compound tested, an IC50 concentration was calculated from a best-fit computer analysis of the calculated percent inhibition for the various dilutions of the compound.

The next assay concerns the target T2, CD45 (Homo sapiens, UniProt P08575).
T2 construct: The PCR reaction product (2127 bp) was digested with Sma I (New England Biolabs, Beverly Mass.) to yield a 2110 bp product; made in house; host or cells: E. coli DH5α, plasmid pET24C-CD45
T2 sequence (P08575 599-1306 limits assumed): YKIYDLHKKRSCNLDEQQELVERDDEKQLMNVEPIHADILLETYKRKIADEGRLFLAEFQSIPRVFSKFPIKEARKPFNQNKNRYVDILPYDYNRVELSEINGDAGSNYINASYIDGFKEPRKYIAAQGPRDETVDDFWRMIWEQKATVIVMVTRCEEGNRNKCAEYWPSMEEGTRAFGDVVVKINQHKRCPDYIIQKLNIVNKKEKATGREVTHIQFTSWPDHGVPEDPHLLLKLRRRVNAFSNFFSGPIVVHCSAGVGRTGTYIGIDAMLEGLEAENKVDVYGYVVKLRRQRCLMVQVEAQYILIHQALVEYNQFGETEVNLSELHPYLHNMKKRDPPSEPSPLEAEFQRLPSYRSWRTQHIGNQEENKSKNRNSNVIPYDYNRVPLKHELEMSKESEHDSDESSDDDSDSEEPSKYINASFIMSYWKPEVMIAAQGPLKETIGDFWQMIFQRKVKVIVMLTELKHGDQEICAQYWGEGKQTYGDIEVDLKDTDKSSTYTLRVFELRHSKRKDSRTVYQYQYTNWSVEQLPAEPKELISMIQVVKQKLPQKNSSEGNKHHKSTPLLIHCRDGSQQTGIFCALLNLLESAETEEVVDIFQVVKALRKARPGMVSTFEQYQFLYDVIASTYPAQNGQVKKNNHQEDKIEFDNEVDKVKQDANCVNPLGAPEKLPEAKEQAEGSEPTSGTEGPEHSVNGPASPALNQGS
Put plainly: In vitro PTPase inhibition assay (pNPP, colorimetric), CD45. To be noted: Table 9; read-out: IC50 values against CD45. The format is biochemical. The procedure:
CD45 enzymatic activity of samples was assayed in microtiter plates as follows. […] Louis Mo.), and 80 ul of activity assay buffer (100 mM sodium acetate, pH 6.0, 1 mM EDTA, 0.1% Triton X-100, 15 mM bME). Reactions were mixed gently and incubated at 37° C. for 60 minutes. […] To determine the enzymatic activity, absorbance readings of the reactions were measured at 405 nm using a Molecular Devices Thermomax Plate Reader (Menlo Park Calif.). […] Purified phosphatase was added to the reaction mixtures to begin the reactions; the reactions were incubated at 37° C. for 60 min. […] (for PTP-1C and PTPα assays), stopped, and colorimetrically analyzed as described above. […] First, absorbance readings from the negative control reactions were treated as a baseline and subtracted from the absorbance readings of the experimental reactions. Then, for each reaction, a percent inhibition was calculated using the following formula: […] For each inhibitor compound tested, an IC50 concentration was calculated from a best-fit computer analysis of the calculated percent inhibition for the various dilutions of the compound. CD45 enzymatic activity of samples was assayed in microtiter plates as follows. […] Louis Mo.), and 80 ul of activity assay buffer (100 mM sodium acetate, pH 6.0, 1 mM EDTA, 0. 1% Triton X-100, 15 mM bME). Reactions were mixed gently and incubated at 37° C. for 60 minutes. […] To determine the enzymatic activity, absorbance readings of the reactions were measured at 405 nm using a Molecular Devices Thermomax Plate Reader (Menlo Park Calif.). […] Purified phosphatase was added to the reaction mixtures to begin the reactions; the reactions were incubated at 37° C. for 60 min. […] (for PTP-1C and PTPα assays), stopped, and calorimetrically analyzed as described above. […] First, absorbance readings from the negative control reactions were treated as a baseline and subtracted from the absorbance readings of the experimental reactions. Then, for each reaction, a percent inhibition was calculated using the following formula: […] For each inhibitor compound tested, an IC50 concentration was calculated from a best-fit computer analysis of the calculated percent inhibition for the various dilutions of the compound.

Molecules are shown by their SMILES.

Consider `O=C(O)/C=C/c1ccc(-c2nc(-c3ccc4ccc5cccc6ccc3c4c56)[nH]c2-c2ccc(/C=C/C(=O)O)cc2)cc1` [Compound 80], for which the IC50 at PTP-1B was 10000 nM; at CD45, 20000 nM.

Consider `O=C(O)/C=C/c1ccc(-c2nc(-c3cc4ccccc4c4ccccc34)[nH]c2-c2ccc(/C=C/C(=O)O)cc2)cc1` [Compound 81], for which the results for the IC50 at PTP-1B and at CD45 were 26000 nM and 19000 nM, respectively.

As to `O=C(O)/C=C/c1ccc(-c2nc(-c3cc(Cl)cc(Cl)c3Cl)[nH]c2-c2ccc(/C=C/C(=O)O)cc2)cc1` [Compound 82], the IC50 at PTP-1B was 11900 nM; at CD45 it was 12800 nM.

`COc1ccc(-c2nc(-c3ccc(/C=C/C(=O)O)cc3)c(-c3ccc(/C=C/C(=O)O)cc3)[nH]2)cc1F` [Compound 83]: the IC50 at PTP-1B amounted to 1300 nM; on CD45, 1500 nM.

Take `O=C(O)/C=C/c1ccc(-c2nc(-c3c(F)c(F)c(F)c(F)c3F)[nH]c2-c2ccc(/C=C/C(=O)O)cc2)cc1` [Compound 84]: the concentration for half-maximal inhibition (IC50) on PTP-1B was 1200 nM; at CD45, 2700 nM.

In the case of `O=C(O)/C=C/c1ccc(-c2nc(-c3ccc4c(c3)OCO4)[nH]c2-c2ccc(/C=C/C(=O)O)cc2)cc1` [Compound 85], the figures for the IC50 on PTP-1B and at CD45 were 1500 nM and 1800 nM, respectively.

As to `COc1ccc(-c2nc(-c3ccc(/C=C/C(=O)O)cc3)c(-c3ccc(/C=C/C(=O)O)cc3)[nH]2)c(C)c1C` [Compound 86], the IC50 at PTP-1B was determined as 1800 nM; at CD45, 7100 nM.

In the case of `O=C(O)/C=C/c1ccc(-c2nc(-c3ccc(OCc4ccccc4)cc3)[nH]c2-c2ccc(/C=C/C(=O)O)cc2)cc1` [Compound 87], the IC50 at PTP-1B was 1000 nM; at CD45, 1100 nM.

For the compound `O=C(O)/C=C/c1ccc(-c2nc(-c3ccc4c(c3)CCC4)[nH]c2-c2ccc(/C=C/C(=O)O)cc2)cc1` [Compound 89], the results for the IC50 at PTP-1B and on CD45 were 13700 nM and more than 100000 nM, respectively.

Turning to `CC(=O)Nc1ccc(-c2nc(-c3ccc(/C=C/C(=O)O)cc3)c(-c3ccc(/C=C/C(=O)O)cc3)[nH]2)cc1` [Compound 90], the IC50 on PTP-1B came to 860 nM; at CD45 it was 1120 nM.

On to `COc1ccc(-c2nc(-c3cc(/C=C/C(=O)O)ccc3O)c(-c3cc(/C=C/C(=O)O)ccc3O)[nH]2)cc1` [Compound 91], for which the IC50 was 25900 nM at PTP-1B and more than 100000 nM on CD45.

For the compound `CCCCn1cnc(-c2ccc(/C=C/C(=O)O)cc2)c1-c1ccc(/C=C/C(=O)O)cc1` [Compound 94], the results for the 50% inhibitory concentration (IC50) at PTP-1B and on CD45 were 700 nM and 7000 nM, respectively.

As to `O=C(O)/C=C/c1ccc(-c2ncn(-c3ccccc3)c2-c2ccc(/C=C/C(=O)O)cc2)cc1` [Compound 99], the IC50 worked out at 1500 nM at PTP-1B and 7400 nM on CD45.

Regarding `O=C(O)/C=C/c1ccc(-c2[nH]cnc2C(=O)OCc2ccccc2)cc1` [Compound 134], the IC50 at PTP-1B worked out at 3400 nM; on CD45, 20000 nM.

With `O=C(O)/C=C/c1ccc(-c2nc(C(=O)OCc3ccccc3)c(-c3ccc(/C=C/C(=O)O)cc3)[nH]2)cc1` [Compound 136], the IC50 at PTP-1B came to 700 nM; at CD45 it was 8000 nM.

As to `O=C(O)/C=C/c1ccc(-c2nc3ccc([N+](=O)[O-])cc3nc2-c2ccc(/C=C/C(=O)O)cc2)cc1` [Compound 152], the IC50 at PTP-1B worked out at 850 nM; on CD45 it was 1200 nM.

Consider `O=C(O)/C=C/c1ccc(-c2nc3cc(Cl)c(Cl)cc3nc2-c2ccc(/C=C/C(=O)O)cc2)cc1` [Compound 153], for which the IC50 at PTP-1B amounted to 2650 nM; on CD45 it was 1910 nM.

Regarding `Cc1ccc2nc(-c3ccc(/C=C/C(=O)O)cc3)c(-c3ccc(/C=C/C(=O)O)cc3)nc2c1` [Compound 154], the IC50 at PTP-1B turned out to be 3830 nM; on CD45, 2450 nM.

Regarding `O=C(O)/C=C/c1ccc(-c2nc3ccc(C(=O)O)cc3nc2-c2ccc(/C=C/C(=O)O)cc2)cc1` [Compound 155], the IC50 at PTP-1B stood at 1000 nM; on CD45, 1300 nM.

With `COC(=O)c1ccc2nc(-c3ccc(/C=C/C(=O)O)cc3)c(-c3ccc(/C=C/C(=O)O)cc3)nc2c1` [Compound 156], the IC50 on PTP-1B stood at 1700 nM; at CD45, 1300 nM.

As for `O=C(O)/C=C/c1ccc(-c2nc3ccccc3nc2-c2ccc(/C=C/C(=O)O)cc2)cc1` [Compound 157], the IC50 on PTP-1B amounted to 5500 nM; at CD45, 1500 nM.

`O=C(O)/C=C/c1ccc(-c2nc3cccnc3nc2-c2ccc(/C=C/C(=O)O)cc2)cc1` [Compound 160]: the IC50 at PTP-1B turned out to be 980 nM; on CD45, 1520 nM.
